Measured values reported in PMC4695185, “Semi-synthetic ocotillol analogues as selective ABCB1-mediated drug resistance reversal agents” (Oncotarget, 2015).
pEC50, pIC50: −log10 of the molar value. Like-named read-outs stand apart in the source and are kept apart here.

Key:
HEK/ABCG2 = test system: T1, HEK/ABCG2; experiment: cells; set-up: species or system HEK293 and transfected HEK293; MTT cytotoxicity, absorbance 570 nm, 72 h; details: Homo sapiens, HEK293, 72 h; drug alone; read-out: IC50 HEK/ABCG2 (mitoxantrone)
T1 construct: HEK293 transfected with ABCG2 (wild type)
Experimental: (§1) The MTT colorimetric assay was used to detect the sensitivity of the cells against anticancer drugs. Cells (5 × 10^3/well) were seeded evenly into (160 μl/well) 96-well plates and cultured overnight. For the reversal experiments, ORA, OSA, and parallel control modulators (20 μl/well) were added 1 h prior. Different concentrations of the chemotherapeutic drugs (20 μl/well) were then added into the designated wells. After 72 h of incubation, 20 μl of MTT solution (4 mg/ml) was added to each well, and the plate was further incubated for 4 h. Subsequently, the medium was discarded, and 100 μl of dimethylsulfoxide (DMSO) was added into each well to dissolve the formazan crystals. The absorbance was determined at 570 nm by the OPSYS microplate reader (DYNEX Technology, Inc., Chantilly, VA). The IC50 value was calculated from the survival curves using the modified Bliss method. Verapamil was used at a nontoxic concentration of 3 μM as a positive control for ABCB1 overexpressing cell lines. FTC at 3 μM and PAK-104P at 10 μM were used as positive control for ABCG2 and ABCC1 overexpressing cell lines, respectively.

HEK293 = experiment: cells; set-up: species or system HEK293 and transfected HEK293; MTT cytotoxicity, absorbance 570 nm, 72 h; details: Homo sapiens, HEK293, 72 h, drug alone
Experimental: as §1

ABCB1 [1] = molecular target: T2, ABCB1 (Homo sapiens, UniProt P08183); experiment: biochemical; set-up: full length ABCB1 (HEK/ABCB1); crude membranes of High-five cells expressing ABCB1
T2 sequence (P08183 whole entry): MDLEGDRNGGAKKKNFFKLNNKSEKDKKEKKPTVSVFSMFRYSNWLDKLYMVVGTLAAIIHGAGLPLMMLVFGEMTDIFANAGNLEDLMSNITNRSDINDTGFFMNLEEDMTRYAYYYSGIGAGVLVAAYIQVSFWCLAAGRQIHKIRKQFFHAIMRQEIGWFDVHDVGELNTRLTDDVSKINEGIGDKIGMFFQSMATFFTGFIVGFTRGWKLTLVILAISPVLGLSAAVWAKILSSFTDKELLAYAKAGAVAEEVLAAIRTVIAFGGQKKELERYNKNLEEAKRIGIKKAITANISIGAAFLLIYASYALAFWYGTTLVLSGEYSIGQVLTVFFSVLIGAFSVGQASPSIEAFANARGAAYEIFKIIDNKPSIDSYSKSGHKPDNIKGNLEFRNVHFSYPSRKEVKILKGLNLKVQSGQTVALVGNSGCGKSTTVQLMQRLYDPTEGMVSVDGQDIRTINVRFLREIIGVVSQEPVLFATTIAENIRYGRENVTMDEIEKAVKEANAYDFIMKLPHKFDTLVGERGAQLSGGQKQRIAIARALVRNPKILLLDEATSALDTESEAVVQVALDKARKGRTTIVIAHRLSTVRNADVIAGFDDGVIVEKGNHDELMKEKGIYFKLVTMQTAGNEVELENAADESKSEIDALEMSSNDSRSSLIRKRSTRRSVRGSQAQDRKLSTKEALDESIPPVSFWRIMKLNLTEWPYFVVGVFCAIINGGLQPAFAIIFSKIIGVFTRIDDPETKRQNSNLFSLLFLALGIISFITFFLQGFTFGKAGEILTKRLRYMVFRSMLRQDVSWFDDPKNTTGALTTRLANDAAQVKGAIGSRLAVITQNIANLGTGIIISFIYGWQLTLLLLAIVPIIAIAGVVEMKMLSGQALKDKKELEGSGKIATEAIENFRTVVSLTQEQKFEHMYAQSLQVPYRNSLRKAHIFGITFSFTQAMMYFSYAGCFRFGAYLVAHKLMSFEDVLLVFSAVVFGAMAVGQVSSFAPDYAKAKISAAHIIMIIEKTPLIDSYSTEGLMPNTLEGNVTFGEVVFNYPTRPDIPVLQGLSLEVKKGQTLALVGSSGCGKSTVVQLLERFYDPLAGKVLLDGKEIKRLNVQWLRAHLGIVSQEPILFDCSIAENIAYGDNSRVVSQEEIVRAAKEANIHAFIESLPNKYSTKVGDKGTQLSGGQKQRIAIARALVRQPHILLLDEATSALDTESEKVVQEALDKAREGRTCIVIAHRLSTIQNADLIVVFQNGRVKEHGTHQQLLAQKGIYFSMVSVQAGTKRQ

ABCB1 [2] = molecular target: T2, ABCB1; experiment: cell-based; set-up: crude membranes of High-five cells expressing ABCB1; details: read-out: vanadate-sensitive ATPase stimulation in crude membranes (weak: maximal 1.78-fol)
ABCB1 [3] = molecular target: T2, ABCB1
HEK/ABCB1 = test system: T3, HEK/ABCB1; experiment: cells; set-up: species or system HEK293 and transfected HEK293; MTT cytotoxicity, absorbance 570 nm, 72 h; details: Homo sapiens, HEK293, 72 h; drug alone; read-out: IC50 HEK/ABCB1 (paclitaxel)
T3 construct: HEK293 transfected with ABCB1
Experimental: as §1

O=C1c2c(O)ccc(O)c2C(=O)c2c(NCCNCCO)ccc(NCCNCCO)c21 [Mitoxantrone]
pIC50 (HEK/ABCG2): 6.04 | pIC50 (HEK293; read-out: IC50 HEK293 (mitoxantrone)): 7.40

CC(C)(O)[C@H]1CC[C@@](C)([C@H]2CC[C@]3(C)[C@@H]2[C@H](O)C[C@@H]2[C@@]4(C)CC[C@H](N)C(C)(C)[C@@H]4CC[C@]23C)O1 [ORA, (20S, 24R/S)-epoxy-12β, 25-dihydroxy-dommarane-3β-amine]
pEC50 (ABCB1 [1]): 5.68

CC(C)(O)[C@@H]1CC[C@@](C)([C@H]2CC[C@]3(C)[C@@H]2[C@H](O)C[C@@H]2[C@@]4(C)CC[C@H](N)C(C)(C)[C@@H]4CC[C@]23C)O1 [OSA, (20S, 24R/S)-epoxy-12β, 25-dihydroxy-dommarane-3β-amine]
maximal fold induction (ABCB1 [2]): 1.78

CC(=O)O[C@H]1C(=O)[C@@]2(C)[C@H]([C@H](OC(=O)c3ccccc3)[C@]3(O)C[C@H](OC(=O)[C@H](O)[C@@H](NC(=O)c4ccccc4)c4ccccc4)C(C)=C1C3(C)C)[C@]1(OC(C)=O)CO[C@@H]1C[C@@H]2O [paclitaxel]
radiolabelled efflux and accumulation in ABCB1-overexpressing versus parental ce (ABCB1 [3]): decreased much faster over time than those in the parental cells, suggesting an active process of drug efflux mediated by ABCB1 | pIC50 (HEK293; read-out: IC50 HEK293 (paclitaxel)): 6.74 | pIC50 (HEK/ABCB1): 5.09
